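Protocol summary: plate cells (96-well), add compound at 5 concentrations, incubate 48 h, interpolate endpoints linearly. GI50 = concentration required for 50% inhibition of growth. TGI denotes the concentration required for complete inhibition of growth.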

What all share (test): DTP human tumour cell line panel, 48 h
The subject of test [1] is NCI-H226 lung.
The subject of test [2] is UACC-62 melanoma.
The test system of test [3] is UACC-257 melanoma.
The subject of test [4] is NCI/ADR-RES ovarian.
The test system of test [5] is HOP-92 NSCLC.
The subject of test [6] is SN12C renal.
In test [7] the test system is NCI-H522 lung.
Test [8] deals with SK-OV-3 ovarian.
Test [9] relates to HCT-15 colon.
For test [10], the system named is MALME-3M melanoma.

Consider `O=c1[nH]c(Nc2ccc(Cl)c(C(F)(F)F)c2)nc2nc[nH]c12`, for which the TGI in test [1], in [2], in [3], in test [4], in test [5] and in test [6] was above 100 µM in each case. Besides, the TGI (in general, the concentration giving total growth inhibition) in test [7] was 34.3 µM; in test [8], above 100 µM; in test [9], above 100 µM; in [10], above 100 µM.
On to `Nc1ncnc2c1sc1nc3ccccc3n12`, for which the TGI in test [1], in test [2], in test [3], in [4], in test [5] and in test [6] was above 100 µM each time. For the same compound, the TGI was above 95.8 µM in test [7], above 100 µM in [8], above 100 µM in test [9] and above 100 µM in test [10].
`CC(C)(C)OC(=O)NC(CCCCNC(=O)OCc1ccccc1)C(=O)NCCNc1ccc(NCCNC(=O)C(CCCCNC(=O)OCc2ccccc2)NC(=O)OC(C)(C)C)c2c1C(=O)c1ccccc1C2=O` (configuration not stated): the TGI in test [1] was above 100 µM; in [2] it was above 100 µM; in test [3], above 100 µM; in [4], above 100 µM; in [5] it was above 71.4 µM; in test [6], above 100 µM. Moreover, the TGI in test [7] is 93.3 µM; in [8] it was above 90.1 µM; in [9], above 100 µM; in [10], above 100 µM.
Turning to `O=C(O[C@@H](/C=C/c1ccccc1)P1(=O)N(Cc2ccccc2)[C@H]2CCCC[C@@H]2N1Cc1ccccc1)c1ccccc1`, the TGI in test [1] was 13.2 µM; in [2], 7.47 µM; in test [3], 9.43 µM; in [4] it was above 100 µM; in test [5], 45.2 µM; in test [6], 6.74 µM. Besides, the concentration for total growth inhibition (TGI) in test [7] was above 100 µM; in [8], 77.1 µM; in [9] it was above 100 µM; in test [10], 31.6 µM.
As to `O=C(CSc1nc2ccc([N+](=O)[O-])cc2s1)c1ccc2ccccc2c1`, the TGI in test [1], in test [2], in test [3], in test [4], in [5] and in test [6] was above 100 µM in each case. For the same compound, the TGI in [7], in [8], in test [9] and in test [10] was above 100 µM each time.
Take `COc1ccc(C2NC(=S)Nc3c2c(=O)oc2c3ccc3ccccc32)cc1` (configuration not stated): the TGI in [1], in test [2], in test [3], in [4], in test [5] and in test [6] was above 100 µM in each case. Besides, the TGI in test [7], in [8], in [9] and in test [10] was above 100 µM in each case.
Consider `COCC1CCCN1c1ccc(C=N/C(C#N)=C(\N)C#N)cc1` (configuration not stated), for which the GI50 (commonly the concentration that inhibits growth by half) in test [1] was 4.68 µM; in test [3] it was above 100 µM; in [4], above 100 µM; in [5], 14.3 µM; in test [6], 4.85 µM; in test [7] it was 15.8 µM. Moreover, the GI50 is 27.5 µM in test [8] and 7.75 µM in test [10]. Also, the TGI in [1] was above 100 µM; in test [3], above 100 µM; in test [4] it was above 100 µM; in [5] it was 46 µM; in test [6], 84.5 µM; in [7], 56.2 µM. Besides, the TGI in test [8] and in [10] was above 100 µM throughout.
Regarding `Cc1c(N2C(=O)/C(=C/c3ccc(Cl)cc3)N=C2c2ccccc2)c(=O)n(-c2ccccc2)n1C`, the TGI was 96.7 µM in [1]; 47.1 µM in test [2]; 42.8 µM in test [3]; above 100 µM in test [4]; 66.6 µM in test [5]; above 100 µM in [6]. Besides, the TGI in test [7] was 44.8 µM; in test [8] it was above 100 µM; in [9], 19.6 µM; in test [10], above 100 µM.
For the compound `CCOC(=O)C(/C(=N/S(=O)(=O)c1cc(C)c(Cl)cc1[S-])[n+]1ccc(N(C)C)cc1)=C(/O)c1ccc([N+](=O)[O-])cc1`, the TGI in [1] is above 100 µM; in [2], above 100 µM; in test [3] it was 25.3 µM; in [4], above 100 µM; in [5], 23.9 µM; in [6], above 100 µM. Also, the TGI was 34.6 µM in test [7], 68.4 µM in test [8], above 100 µM in test [9] and 40.5 µM in [10].
As for `Cn1cnc([N+](=O)[O-])c1Sc1nc(N)nc2c1ncn2C1OC(CO)C(O)C1O` (configuration not stated), the TGI was above 89.3 µM in [1]; 22.7 µM in test [2]; above 100 µM in test [3]; above 100 µM in test [4]; above 100 µM in test [5]; above 100 µM in [6]. In addition, the TGI in [7] is 33.5 µM; in test [8], 45.5 µM; in [9], above 100 µM; in test [10] it was above 100 µM.
`Cc1ccccc1N=Nc1c(O)c(S(=O)(=O)O)cc2cc(S(=O)(=O)O)ccc12`: the TGI in test [1], in test [2], in test [3], in test [4], in [5] and in [6] was above 100 µM in each case. Also, the TGI in test [7], in [8], in test [9] and in test [10] was above 100 µM throughout.
As to `Cn1c(=O)[nH]c2nncnc2c1=O`, the concentration for total growth inhibition (TGI) in test [1] is 28.7 µM; in [2], 146 µM; in test [3] it was 302 µM; in [4], above 625 µM; in test [5] it was 71.2 µM; in test [6], above 497 µM. Besides, the TGI in test [7] was above 516 µM; in test [8], 498 µM; in [9], above 625 µM; in [10] it was 119 µM.
For the compound `C[N+]1(CCC(=O)c2ccco2)CC2CCC(CC2)C1` (configuration not stated), the TGI in test [1], in test [2], in test [3], in [4], in test [5] and in test [6] was above 100 µM each time. In addition, the TGI in [7], in test [9] and in test [10] was above 100 µM throughout.
Regarding `O=C(O)c1ccc(C(=O)c2ccccc2C(=O)O)cc1C(=O)O`, the TGI in [1], in [2], in test [3], in [4], in test [5] and in test [6] was above 100 µM in each case. The total growth inhibition concentration (TGI) in test [7], in [8], in test [9] and in [10] was above 100 µM throughout.
As for `Clc1ccccc1/C=c1\nc(-c2ccccc2)n2c1nc1ccccc12`, the TGI in [1], in [2], in [3], in test [4], in [5] and in test [6] was above 100 µM in each case. Moreover, the TGI in [8] is 71.7 µM; in test [9] it was above 100 µM; in test [10] it was above 100 µM.
Regarding `CC(=O)OC1CC[C@@]2(C)C(=CC[C@@H]3[C@@H]2CC[C@]2(C)Nc4nn(S(C)(=O)=O)cc4C[C@@H]32)C1` (some centres not stated), the TGI in [1] is 92 µM; in test [2], 50.2 µM; in test [4], above 100 µM; in [5] it was above 100 µM; in [6], above 100 µM; in [7] it was above 100 µM. The values for the TGI in [8], in test [9] and in test [10] were above 100 µM, 89.4 µM and 78.6 µM, respectively.
For `COc1ccc2nc3c(C(=O)NCCN(C)C)cccc3cc2c1`, the TGI amounted to 4.14 µM in [1]; 3.33 µM in test [2]; 5.01 µM in [3]; 4.99 µM in test [4]; 5.76 µM in [5]; 6.93 µM in test [6]. Also, the TGI in [8] was 7.3 µM; in test [9] it was 9.84 µM; in test [10], above 21.4 µM.

Source of the values: PubChem BioAssay (NCI).
